How the values were obtained:
Conditions in all cases: rat, po, 3 mg/kg
[1] = in vivo
Description: Half life in transgenic rat harboring human angiotensinogen and human renin gene at 3 mg/kg, po

[2] = in vivo; remark: listed apart in the source
[3] = in vivo; remark: listed apart in the source
Description: Clearance in transgenic rat harboring human angiotensinogen and human renin gene at 3 mg/kg, po

Row | half-life [1] [h] | bioavailability [2] [%] | CL/F [3] [mL/min/kg] | Compound
1 | 3.6 | 28 | 29 | COCCCc1ccc(Cl)c(CN(C(=O)[C@H]2CNCC[C@@H]2c2ccc(OCCOc3c(Cl)cc(C)cc3Cl)nc2)C2CC2)c1
2 | 5.8 | 35 | 21 | COCCc1ccc(Cl)c(CN(C(=O)[C@H]2CNCC[C@@H]2c2ccc(OCCOc3c(Cl)cc(C)cc3Cl)nc2)C2CC2)c1
3 | 5.6 | 8 | 35 | COCCc1ccc(Cl)c(CN(C(=O)[C@H]2CNCC[C@@H]2c2ccc(N3CC[C@@H](Oc4c(Cl)cc(C)cc4Cl)C3)nc2)C2CC2)c1
